Here are results for four compounds from article PMC8670521, “Identification and characterization of an atypical Gαs-biased β2AR agonist that fails to evoke airway smooth muscle cell tachyphylaxis” (Proceedings of the National Academy of Sciences of the …, 2021).

Assay [1] has as its target T1, β2AR tagged at its carboxyl terminus (PathHunter ECA) (Homo sapiens, UniProt P07550).
T1 construct: gene ADRB2; C-terminal complementary β-galactosidase fragment tag; DiscoverX PathHunter CHO cells co-expressing β-arrestin2 fused to fragment-deficient β-galactosidase (read-out)
Briefly: β-arrestin2 recruitment, PathHunter enzyme complementation. It counts as cell-based. To be noted: […] min, […] °C, CHO cells.

Assay [2] deals with T2, human β2AR (β2-adrenergic receptor) (Homo sapiens, UniProt P07550).
T2 construct: gene ADRB2; full-length receptor cDNA stably expressed in CHW-1102 (CHW-β2) cells, ~2,000 fmol/mg
Briefly: cAMP accumulation, competitive immunoassay. It counts as cell-based. An excerpt: cAMP accumulation, competitive immunoassay on human β2AR (β2-adrenergic receptor)

Where [3] appears, read: agonist, […] min, […] °C, IBMX […], whole CHW-β[…] cells.

Molecules are shown by their SMILES. Read-outs that look alike come from different tables or passages of the source.

T2 sequence (P07550 whole entry): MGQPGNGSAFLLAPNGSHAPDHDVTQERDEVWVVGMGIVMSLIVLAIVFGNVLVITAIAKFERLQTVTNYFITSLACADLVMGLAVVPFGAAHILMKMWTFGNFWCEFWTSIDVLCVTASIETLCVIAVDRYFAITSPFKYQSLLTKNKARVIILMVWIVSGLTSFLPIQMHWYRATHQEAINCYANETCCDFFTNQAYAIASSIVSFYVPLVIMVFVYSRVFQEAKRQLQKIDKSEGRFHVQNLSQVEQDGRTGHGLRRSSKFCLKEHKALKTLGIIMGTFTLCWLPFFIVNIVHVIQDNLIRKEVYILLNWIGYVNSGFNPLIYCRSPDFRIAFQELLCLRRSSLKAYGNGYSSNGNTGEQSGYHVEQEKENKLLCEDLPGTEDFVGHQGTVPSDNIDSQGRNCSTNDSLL
T1 sequence (P07550 whole entry, the tested form may be a part): as the sequence (P07550 whole entry) above

On to `COc1ccc(CC2=N[C@@H](CCCCN3C[C@H](Cc4ccc(O)cc4)N(CCCCC4CCCCC4)C3=O)CN2)cc1` [C1-S], for which the “β-arrestin2 recruitment, PathHunter enzyme complementation” value in assay [1] is reported as “lack of a response to C1-S in the β-arrestin ECA”. This compound also showed an EC50 in assay [2] of 4.23 ± 1 µM.
As to `COc1ccc(CC2=N[C@@H](CCCCN3C[C@H](Cc4ccc(O)cc4)N(CCCCC4CCCCC4)C3=O)CN2)cc1OC` [C2-S], a half-maximal effect in assay [2] (setting [3]) (EC50) was put at 6.67 ± 2.01 µM.
Still for that read-out and setting: for `CCOc1ccc(CC2=N[C@@H](CCCCN3C[C@H](Cc4ccc(O)cc4)N(CCCCC4CCCCC4)C3=O)CN2)cc1` [C3-S] the value was 4.31 ± 1.69 µM.
In assay [2] (setting [3]), `CC(C)CC1=N[C@@H](CCCCN2C[C@H](Cc3ccc(O)cc3)N(CCCCC3CCCCC3)C2=O)CN1` [C4-S] gave an EC50 of 3.52 ± 0.52 µM.
